Measurements reported in publication PMC11046985 (Neuro-Oncology Advances, 2024).

Parameters: species or system human
Details: in vivo
Excerpt: The opening of a new cohort followed a standard 3 + 3 dose-escalation design and was guided by assessment of all grade toxicities and trends in adverse events seen in subsequent dosing cycles. […] Safety and clinical data were reviewed through day 28 prior to the opening of each cohort level. DLT was defined as any possible drug-related, clinically relevant, grade 3 or 4 non-hematologic toxicity (except alopecia or unmedicated nausea/vomiting), grade 3 nausea, vomiting, or diarrhea of any duration lasting > 24 hours despite standard prophylaxis and/or treatment, grade 4 diarrhea and vomiting of any duration, grade 3 febrile neutropenia (defined as ANC […] with a single temperature of > 38.3° C or a sustained temperature of ≥ 38.3° C for more than 1 hour), grade 4 febrile neutropenia of any duration, grade 4 neutropenia lasting > 7 days (defined as a neutrophil count of < 500/mm^3), grade 4 thrombocytopenia or thrombocytopenia with clinically significant bleeding, grade 4 anemia of any duration, and any clinically significant toxicity that precluded administration of the next scheduled dose beyond 14 days, or dose reduction for any reason. The maximum tolerated dose (MTD) was defined as the highest dose tested in which fewer than 33% of patients experienced a DLT. Review of study data led to expansion of dose cohort 3 while dose cohort 4 was evaluated. Dose cohort 4 was also expanded in the absence of DLTs. The recommended phase II dose was defined as a dose equal to or below the MTD and accounted for any cumulative or delayed toxicity beyond the DLT observation period.
Safety evaluations of hematology and chemistry were conducted weekly on days 1, 8, and 15 in cycles 1 and 2 and every 2 weeks thereafter. Physical examination, vital signs collection, performance status assessment, neurological exam, and coagulation level occurred at the start of every cycle. An ECG and chest X-ray were performed at baseline prior to starting treatment. Toxicities were assessed using NCI CTCAE version 4.03.

## CN(C)C/C=C/C(=O)Nc1cc2c(Nc3ccc(F)c(Cl)c3)ncnc2cc1O[C@H]1CCOC1 [Afatinib]
human
  Acute kidney injury: % of patients with treatment-related AE: 4.2%
  Acute kidney injury: No. of patients with treatment-related AE: 1
  Amnesia: % of patients with treatment-related AE: 4.2%
  Amnesia: No. of patients with treatment-related AE: 1
  Anorexia: % of patients with treatment-related AE: 25%
  Anorexia: No. of patients with treatment-related AE: 6
  Bilateral blepharitis: % of patients with treatment-related AE: 4.2%
  Bilateral blepharitis: No. of patients with treatment-related AE: 1
  Bilateral intermittent leg cramps: % of patients with treatment-related AE: 4.2%
  Bilateral intermittent leg cramps: No. of patients with treatment-related AE: 1
  Blurred vision: % of patients with treatment-related AE: 4.2%
  Blurred vision: No. of patients with treatment-related AE: 1
  Candida Intertrigo: % of patients with treatment-related AE: 4.2%
  Candida Intertrigo: No. of patients with treatment-related AE: 1
  Confusion: % of patients with treatment-related AE: 8.3%
  Confusion: No. of patients with treatment-related AE: 2
  Constipation: % of patients with treatment-related AE: 12.5%
  Constipation: No. of patients with treatment-related AE: 3
  DVT: % of patients with treatment-related AE: 4.2%
  DVT: No. of patients with treatment-related AE: 1
  Diarrhea: % of patients with treatment-related AE: 75%
  Diarrhea: No. of patients with treatment-related AE: 18
  Dysgeusia: % of patients with treatment-related AE: 4.2%
  Dysgeusia: No. of patients with treatment-related AE: 1
  Dyspepsia: % of patients with treatment-related AE: 4.2%
  Dyspepsia: No. of patients with treatment-related AE: 1
  Dyspnea: % of patients with treatment-related AE: 4.2%
  Dyspnea: No. of patients with treatment-related AE: 1
  Edema limbs: % of patients with treatment-related AE: 16.7%
  Edema limbs: No. of patients with treatment-related AE: 4
  Fatigue: % of patients with treatment-related AE: 25%
  Fatigue: No. of patients with treatment-related AE: 6
  Fever: % of patients with treatment-related AE: 8.3%
  Fever: No. of patients with treatment-related AE: 2
  GERD: % of patients with treatment-related AE: 4.2%
  GERD: No. of patients with treatment-related AE: 1
  Gait disturbance: % of patients with treatment-related AE: 4.2%
  Gait disturbance: No. of patients with treatment-related AE: 1
  Gastroenteritis: % of patients with treatment-related AE: 4.2%
  Gastroenteritis: No. of patients with treatment-related AE: 1
  Headache: % of patients with treatment-related AE: 4.2%
  Headache: No. of patients with treatment-related AE: 1
  Hypokalemia: % of patients with treatment-related AE: 4.2%
  Hypokalemia: No. of patients with treatment-related AE: 1
  Ingrown nail: % of patients with treatment-related AE: 4.2%
  Ingrown nail: No. of patients with treatment-related AE: 1
  Insomnia: % of patients with treatment-related AE: 4.2%
  Insomnia: No. of patients with treatment-related AE: 1
  Memory impairment: % of patients with treatment-related AE: 4.2%
  Memory impairment: No. of patients with treatment-related AE: 1
  Metabolic acidosis: % of patients with treatment-related AE: 4.2%
  Metabolic acidosis: No. of patients with treatment-related AE: 1
  Metabolic encephalopathy: % of patients with treatment-related AE: 4.2%
  Metabolic encephalopathy: No. of patients with treatment-related AE: 1
  Nausea: % of patients with treatment-related AE: 37.5%
  Nausea: No. of patients with treatment-related AE: 9
  Palmar-Plantar Erythrodysesthesia: % of patients with treatment-related AE: 4.2%
  Palmar-Plantar Erythrodysesthesia: No. of patients with treatment-related AE: 1
  Paresthesia (lower extremities): % of patients with treatment-related AE: 4.2%
  Paresthesia (lower extremities): No. of patients with treatment-related AE: 1
  Pruritus: % of patients with treatment-related AE: 16.7%
  Pruritus: No. of patients with treatment-related AE: 4
  Rash acneiform: % of patients with treatment-related AE: 37.5%
  Rash acneiform: No. of patients with treatment-related AE: 9
  Rash maculo-papular: % of patients with treatment-related AE: 20.8%
  Rash maculo-papular: No. of patients with treatment-related AE: 6
  Rash: % of patients with treatment-related AE: 25%
  Rash: No. of patients with treatment-related AE: 6
  Skin atrophy: % of patients with treatment-related AE: 4.2%
  Skin atrophy: No. of patients with treatment-related AE: 1
  Skin ulceration: % of patients with treatment-related AE: 4.2%
  Skin ulceration: No. of patients with treatment-related AE: 1
  Thrombocytopenia: % of patients with treatment-related AE: 4.2%
  Thrombocytopenia: No. of patients with treatment-related AE: 1
  Vomiting: % of patients with treatment-related AE: 37.5%
  Vomiting: No. of patients with treatment-related AE: 9
human, po
  Mucositis oral: % of patients with treatment-related AE: 20.8%
  Mucositis oral: No. of patients with treatment-related AE: 5
  Recommended phase II dose: 280 mg
  Thrush (oral): % of patients with treatment-related AE: 4.2%
  Thrush (oral): No. of patients with treatment-related AE: 1
  Dose-limiting toxicities: no dose-limiting toxicities
